The IC50 is the concentration that inhibits the measured activity by half. A higher IC50 goes with weaker potency in that assay. For orientation: AUC(0-inf) means total exposure, with the tail of the curve extrapolated. In general, Cmax refers to the highest concentration seen after dosing. Usually Tmax stands for the time at which the peak concentration occurs. Usually half-life stands for how long it takes for the measured level to halve. The low end stands for fast loss, the high end for slow loss.

In data set [1] the test system is CYP enzymes in rat liver microsomes (RLM). Description: Inhibition of 20-HETE production in rat liver microsomes (RLM). It counts as biochemical. In a few lines: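 Test compounds were dissolved in DMSO, diluted in acetonitrile/DMSO (3:1), and 2 μl was mixed with 100 μl potassium phosphate buffer containing rat liver microsomes in a 96-well plate. Duplicate 30 μl aliquots received 15 μl of 400 μM substrate, were preheated at 37° C. for 10 minutes, then started with 15 μl of 6 mM NADPH for 25 minutes. LC-MS/MS measured 20-HETE formation.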
Background: Liver microsomes are a subcellular fraction often used to study metabolism.

The nature of data set [2]: Pharmacokinetic (PK) experiment, oral administration in rats. The class given is in vivo, Male SD rats. To be noted: 20 mg/kg; for AUC(0-inf) / Cmax / Tmax / half-life / AUC(0-t): male, SD, rat, plasma; for AUC(0-t): read-out: AUC0-24. The procedure: Male SD rats, weighing 180-250 grams, were fasted overnight before testing. The test compound was dissolved in 30% sulfobutylether-β-cyclodextrin and administered orally at a dose of 20 mg/kg. Blood was collected from the tail vein at 15 minutes, 30 minutes, and 1, 2, 4, 6, 8, and 24 hours after administration. Approximately 0.3 ml of blood was collected at each time point, placed in a centrifuge tube containing K2-EDTA, and centrifuged (2000 g for 10 minutes at 4° C.) to take the plasma, which was then stored in an ultra-low temperature freezer at −70° C. or below. A 50 μL plasma sample was mixed with 135 μL of acetonitrile (containing 0.5 μg/mL internal standard) and vortexed for protein precipitation. After centrifugation, the supernatant was taken for LC-MS/MS analysis.

Data set [3] relates to CYP enzymes in mouse liver microsomes (MLM). Description: Inhibition of 20-HETE production in mouse liver microsomes (MLM). It counts as biochemical. The protocol: Experimental principle: The inhibitory activity of 20-HETE production is evaluated by testing the inhibitory effects of the compound on human liver microsomes (HLM), rat liver microsomes (RLM), mouse liver microsomes (MLM), or […] CYP4 subtype enzymes (CYP4F2). This assay employs HLM, RLM, or MLM along with recombinant CYP4F2 (rCYP4F2) and recombinant CYP4A11 (rCYP4A11), which are […] CYP4 subtype enzymes, to detect the effects of the test compound at different concentrations on the metabolic rate of enzyme-specific substrates, to determine the inhibitory effects of the test compound on CYP enzymes in HLM, RLM, or MLM.
Experimental methods: Dissolve the test compound in DMSO, and subsequently dilute it with an acetonitrile and DMSO mixture (3:1). Add 2 μl of varying concentrations of the test compound and 100 μl of potassium phosphate buffer containing either liver microsomes or recombinant enzymes to a 96-well plate. After mixing well, transfer 30 μl to another well (in duplicate), add 15 μl of 400 μM substrate solution, and mix well again. Preheat at 37° C. for 10 minutes, and then add 15 μl of 6 mM NADPH and incubate at 37° C. for 25 minutes. After 25 minutes, add 160 μl of acetonitrile solution (containing 0.1 μg/ml internal standard) to stop the reaction. Mix well, centrifuge at 3500 g for 15 minutes, and then analyze the supernatant using LC-MS/MS.
Plot the compound concentration on the x-axis and the inhibition rate on the y-axis to draw the curve. Use GraphPad Prism 5 software to fit the curve and calculate the IC50. The formula is Y=Bottom+(Top−Bottom)/(1+10^((Log IC50−X)×HillSlope)). X represents the logarithmic concentration of the inhibitor, and Y represents the relative enzyme activity at a given inhibitor concentration (relative to the condition without the inhibitor).
Calculate the inhibition percentages at concentrations of 1000 nM, 500 nM, or 100 nM as well as the half-maximal inhibitory concentration (IC50) of the test compound from the above experiment.

In data set [4] the test system is CYP enzymes in human liver microsomes (HLM). The experiment in a line: Inhibition of 20-HETE production in human liver microsomes (HLM). It counts as biochemical. In a few lines: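 Liver microsomes (human or mouse) or recombinant CYP4F2 or CYP4A11 in potassium phosphate buffer mixed with compound, then with 400 μM substrate solution (stock). After 10 min preincubation at 37 °C, reaction started with 6 mM NADPH solution (stock) and run 25 min at 37 °C. 20-HETE formation quantified by LC-MS/MS; IC50 from a four-parameter Hill fit, with percent inhibition also reported at 1000, 500 or 100 nM.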

In the case of `O=S1(=O)CCCCN1CC1CCN(c2ccc(-c3cn[nH]c3)cc2F)CC1` [Compound 163, 2-((1-(2-fluoro-4-(1H-pyrazol-4-yl)phenyl)piperidin-4-yl)methyl)-1,2-thiazinane 1,1-dioxide], in data set [1], the IC50 was 222 nM and the “RLM (% inh @ 500 nM)” value was found to be 64.17%. In addition, in data set [2], the “absorption and blood exposure after oral administration (in words)” value was “well absorbed and exhibit high blood exposure”; the AUC(0-inf) was found to be 44700 ng·h/mL; the Cmax was 6680 ng/mL; the Tmax amounted to 1.67 h. In addition, in data set [2], the half-life was 242 min and the AUC(0-t) was 44100 ng·h/mL. The same compound came in with an IC50 in data set [3] of 1010 nM. In addition, in data set [4], the IC50 came to 9.53 nM and the “HLM (% inh @ 500 nM)” value was 90.91%.

Take `O=C(CC1CCCC1)N1CCC(c2ccc(-c3cn[nH]c3)c(F)c2F)CC1` [Compound 93, 2-cyclopentyl-1-(4-(2,3-difluoro-4-(1H-pyrazol-4-yl)phenyl)piperidin-1-yl)ethan-1-one]: the “RLM (% inh @ 500 nM)” value in data set [1] stood at 80.86%. In addition, in data set [3], the IC50 was determined as 296 nM. The “HLM (% inh @ 500 nM)” value in data set [4] worked out at 91.77%.

Take `O=C(Nc1ccccc1)C1CCN(c2ccc(-c3cn[nH]c3)cc2)CC1` [Compound 58, 1-(4-(1H-pyrazol-4-yl)phenyl)-N-phenylpiperidine-4-carboxamide]: the “RLM (% inh @ 500 nM)” value in data set [1] worked out at 44.45%. The figures for the IC50 in data set [3] and in data set [4] were 1570 nM and 16.6 nM, respectively.

Regarding `CC1CN(c2ccc(-c3cn[nH]c3)cc2F)CC(C)N1C(=O)N1CCCC1` (stereo not shown) [Compound 130, (4-(2-fluoro-4-(1H-pyrazol-4-yl)phenyl)-2,6-dimethylpiperazin-1-yl)(pyrrolidin-1-yl) methanone], the values for the IC50 in data set [1], in data set [3] and in data set [4] were 22.8 nM, 414 nM and 7.62 nM, respectively.

For the compound `O=C(C1CCCC1)N1CCC2(CCN(c3ccc(-c4cn[nH]c4)cc3F)C2)C1` (stereo not shown) [Compound 124, cyclopentyl(7-(2-fluoro-4-(1H-pyrazol-4-yl)phenyl)-2,7-diazaspiro[4.4]nonan-2-yl) methanone], in data set [1], the “RLM (% inh @ 500 nM)” value is 74.61%. This compound also came in with an IC50 in data set [3] of 1850 nM. For the same compound, in data set [4], inhibition was half-maximal at 32.8 nM (IC50) and the “HLM (% inh @ 500 nM)” value is reported as 88.29%.

In the case of `C[C@H]1CN(c2ccc(-c3cn[nH]c3)c(F)c2F)CCN1C(=O)N1CCCC1` [Compound 105, (S)-(4-(2,3-difluoro-4-(1H-pyrazol-4-yl)phenyl)-2-methylpiperazin-1-yl)(pyrrolidin-1-yl) methanone], the figures for the IC50 in data set [1], in data set [3] and in data set [4] were 9.78 nM, 1520 nM and 11.1 nM, respectively. The “HLM (% inh @ 500 nM)” value in data set [4] amounted to 79.54%.

In the case of `O=C(N1CCC(c2ccc(-c3cn[nH]c3)cc2F)CC1)N1CC2CCCC2C1` (stereo not shown) [Compound 106, (4-(2-fluoro-4-(1H-pyrazol-4-yl)phenyl)piperidin-1-yl)(hexahydrocyclopenta[c]pyrrol-2 (1H)-yl) methanone], in data set [1], the IC50 amounted to 10.7 nM and the “RLM (% inh @ 500 nM)” value amounted to 84.57%. Besides, the IC50 in data set [3] amounted to 2810 nM. For the same compound, in data set [4], the midpoint of inhibition, the IC50, lay at 23.2 nM and the “HLM (% inh @ 500 nM)” value turned out to be 91.17%.

With `O=C(N1CCC(c2ccc(-c3cn[nH]c3)c(F)c2F)CC1)C1(O)CCCCC1` [Compound 110, (4-(2,3-difluoro-4-(1H-pyrazol-4-yl)phenyl)piperidin-1-yl)(1-hydroxycyclohexyl) methanone], the IC50 in data set [1] came to 29.5 nM; in data set [3], 174 nM; in data set [4] it was 16.1 nM. Also, in data set [1], the “RLM (% inh @ 500 nM)” value is recorded as 77.32%. Besides, the “HLM (% inh @ 500 nM)” value in data set [4] is 92.92%.

In turn, `O=C(N1CC=C(c2ccc(-c3cn[nH]c3)c(F)c2F)CC1)N1CCCC1` [Compound 91, (4-(2,3-difluoro-4-(1H-pyrazol-4-yl)phenyl)-3,6-dihydropyridin-1(2H)-yl)(pyrrolidin-1-yl) methanone] gave an IC50 in data set [1] of 9.09 nM. In data set [2], the “absorption and blood exposure after oral administration (in words)” value was “well absorbed and exhibit high blood exposure”; the AUC(0-inf) came out at 107000 ng·h/mL; the highest level (Cmax) was 11400 ng/mL; the Tmax was 2.5 h. In data set [2], the half-life was 133 min and the AUC(0-t) came to 107000 ng·h/mL. Moreover, the IC50 in data set [3] was found to be 735 nM. In data set [4], 19.1 nM corresponded to half-maximal inhibition (IC50) and the “HLM (% inh @ 500 nM)” value turned out to be 96.45%.

Turning to `O=C(N1CCC(c2ccc(-c3cn[nH]c3)cc2F)CC1)N1Cc2ccccc2C1` [Compound 136, (4-(2-fluoro-4-(1H-pyrazol-4-yl)phenyl)piperidin-1-yl)(isoindolin-2-yl) methanone], the IC50 in data set [3] turned out to be 664 nM. In data set [4], the IC50 came out at 19.4 nM and the “HLM (% inh @ 100 nM)” value amounted to 87.34%.

`O=C(N1CCC(c2ccc(-c3cn[nH]c3)cc2F)CC1)C1(F)CCCCC1` [Compound 141, (4-(2-fluoro-4-(1H-pyrazol-4-yl)phenyl)piperidin-1-yl)(1-fluorocyclohexyl) methanone]: the “MLM (% inh @ 1000 nM)” value in data set [3] amounted to 59.36%. Further, the “HLM (% inh @ 100 nM)” value in data set [4] is on record as 88.15%.

In the case of `O=C(N1CCCC1)N1CC2CN(c3ccc(-c4cn[nH]c4)c(F)c3F)CC2C1` (stereo not shown) [Compound 127, (5-(2,3-difluoro-4-(1H-pyrazol-4-yl)phenyl)hexahydropyrrolo[3,4-c]pyrrol-2 (1H)-yl)(pyrrolidin-1-yl) methanone], the IC50 in data set [1] worked out at 17.9 nM; in data set [3], 1900 nM; in data set [4], 18.3 nM. Also, the “RLM (% inh @ 500 nM)” value in data set [1] is given as 74.10%.

On to `O=C(C1CCC(O)C1)N1CCC(c2ccc(-c3cn[nH]c3)cc2F)CC1` (single isomer, unassigned) [Compound 145a, (4-(2-fluoro-4-(1H-pyrazol-4-yl)phenyl)piperidin-1-yl)(3-hydroxycyclopentyl) methanone], for which the “MLM (% inh @ 1000 nM)” value in data set [3] is reported as 60.45%. The “HLM (% inh @ 100 nM)” value in data set [4] was determined as 86.67%.

In the case of `O=C(N1CCC(c2ccc(-c3cn[nH]c3)cc2F)CC1)C1(O)CCCCC1` [Compound 140, (4-(2-fluoro-4-(1H-pyrazol-4-yl)phenyl)piperidin-1-yl)(1-hydroxycyclohexyl) methanone], the IC50 in data set [3] is 1520 nM; in data set [4], 17.6 nM.

Regarding `CC(C)(O)CNC(=O)N1CCC(c2ccc(-c3cn[nH]c3)cc2F)CC1` [Compound 152, 4-(2-fluoro-4-(1H-pyrazol-4-yl)phenyl)-N-(2-hydroxy-2-methylpropyl)piperidine-1-carboxamide], the “MLM (% inh @ 1000 nM)” value in data set [3] was found to be 48.10%. Besides, in data set [4], the “HLM (% inh @ 100 nM)” value is recorded as 88.49%.

In the case of `O=C1CCC(C(=O)N2CCC(c3ccc(-c4cn[nH]c4)c(F)c3F)CC2)CC1` [Compound 107, 4-(4-(2,3-difluoro-4-(1H-pyrazol-4-yl)phenyl)piperidine-1-carbonyl)cyclohexane-1-one], the IC50 was 33.4 nM in data set [1], 720 nM in data set [3] and 23.6 nM in data set [4]. In addition, in data set [1], the “RLM (% inh @ 500 nM)” value was found to be 69.55%.

As for `C[C@@H]1CN(c2ccc(-c3cn[nH]c3)c(F)c2F)CCN1C(=O)N1CCCC1` [Compound 103, (R)-(4-(2,3-difluoro-4-(1H-pyrazol-4-yl)phenyl)-2-methylpiperazin-1-yl)(pyrrolidin-1-yl) methanone], the “RLM (% inh @ 500 nM)” value in data set [1] worked out at 74.73%. The IC50 was 743 nM in data set [3] and 12 nM in data set [4]. Besides, the “HLM (% inh @ 500 nM)” value in data set [4] stood at 80.55%.

Consider `O=C(N1CCN(c2ccc(-c3cn[nH]c3)cc2F)CC1)C1(O)CCCCC1` [Compound 132, (4-(2-fluoro-4-(1H-pyrazol-4-yl)phenyl)piperazin-1-yl)(1-hydroxycyclohexyl) methanone], for which the values for the IC50 in data set [3] and in data set [4] were 2420 nM and 25.6 nM, respectively.

The record behind these values is US20250034116A1, “1,4-DIHETEROCYCLIC SUBSTITUTED AROMATIC RING OR AROMATIC HETEROCYCLIC COMPOUND AND USE THEREOF” (BeBetter Med Inc., priority 2022, published 2025).
